Legend:
[1] = tested on: Beagle dogs; assay: Subchronic toxicity test in Beagle dogs: organ weights; type: in vivo
Method: (§1) HZ1006 was administered orally to dogs (four/sex/group) at doses of 80, 40, 20, 5 and 0 (control) mg/kg/day, and the dosage volume was 2 mL/kg. The dogs received test doses with the exact amounts on a weekly basis based on current body weights. […] The other dogs in the above groups were dissected on the planned days. For the other groups, half of the dogs were anatomized on d28 and the remaining half on d42.
(§2) After euthanasia, the following organs or tissues were isolated from the dogs and rats: skin, abnormal lesions, spleen, mammary glands, jejunum, pancreas, ileum, duodenum, stomach, colon, cecum, lymph nodes, mesenteric salivary glands, liver, submandibular lymph nodes, thymus, sternum, lungs, heart, esophagus, trachea, tongue, thyroid with parathyroid gland, sciatic nerve, aorta, femurs, skeletal muscle, pituitary gland, brain, kidneys, eyes, urinary bladder, adrenal glands, uterus, ovaries, testes, epididymis and prostate. The weights of the animal organs, such as the liver, spleen, heart, thymus, brain, lungs, adrenal glands, kidneys, uterus, ovaries, epididymis and testes, were tested using an electronic balance. The organs or tissues were fixed using 10% neutral buffered formalin and were then gradient dehydrated, embedded, sectioned, and stained with routine hematoxylin-eosin prior to histopathological observations.

[2] = tested on: SD rats; assay: Subchronic toxicity test in SD rats: organ weights; type: in vivo, Sprague-Dawley (SD) rats; details: for Adrenal gland absolute weight / Brain relative weight: female rats; for Kidney relative weight / Testis absolute weight: male rats
Method: as §2, with “The rats that were judged suitable for the subchronic toxicity study were randomly divided into four groups (10 rats/sex/group). The rats received the test sample by gavage once daily for 28 days. HZ1006 was administered to the rats at doses of 120, 60, 20 and 0 (control) mg/kg, and the dosage volume was 5 mL/kg. Half of the 80 rats (half male and half female) were selected randomly according to body weight and dissected at d28. The remaining rats were dissected at […]. After” for “After”

[3] = tested on: SD rats; assay: Subchronic toxicity test in SD rats: clinical observation, body weight; type: in vivo; details: for body weight reduced compared with the control group: male rats, 120 mg/kg oral daily
Method: The rats that were judged suitable for the subchronic toxicity study were randomly divided into four groups (10 rats/sex/group). The rats received the test sample by gavage once daily for 28 days. HZ1006 was administered to the rats at doses of 120, 60, 20 and 0 (control) mg/kg, and the dosage volume was 5 mL/kg. Half of the 80 rats (half male and half female) were selected randomly according to body weight and dissected at d28. The remaining rats were dissected at d42.
(§3) Clinical symptoms and mortality were examined at least twice daily during the 42-day period, which included any changes in reaction to treatment, behavior, illness, food consumption, and body weight. Breathing rates, rectal temperature and pupil changes in the Beagle dogs were assessed once every 2 weeks.

[4] = Subchronic toxicity test in Beagle dogs: overall (NOAEL, urinalysis, ECG); type: in vivo; details: both sexes, beagle, dog, in vivo, daily oral administration, 28 days, read-out: NOAEL (No Observed Adverse Effect Level)
Method: as §1, §3
(§4) The parameters of the dogs’ ECG included the Heart rate, Time at R, P Duration, P-R interval, T Duration, QRS Durations, Q-T Intervals and ST Segment, which were examined by an ECG6511 ECG instrument (manufactured by Shanghai Kohden Medical Electronic Instrument Corp., Shanghai, China) on d0 (twice), d14, d28 and d42 using the II limb lead method.
(§5) A Micro AUTION MA-4260 Autoanalyzer from Arkray Global Business, Inc. (kyoto, Japan), was used to analyze the animal urine samples. Parameters such as pH, specific gravity, nitrites, leukocytes, glucose, protein, urobilinogen, ketones, occult blood, bilirubin, and hemoglobin were tested.

[5] = tested on: Beagle dogs; assay: as above; type: in vivo
Method: as §1, §3, §4, §5

[6] = dog ♂5 (80 mg/kg/day oral), d28
[7] = dog ♂23 (40 mg/kg/day oral), d28
[8] = dogs, 5 mg/kg/day oral, d42 (recovery)
[9] = dogs, 20 mg/kg/day oral, d42 (recovery)
[10] = dogs, 40 mg/kg/day oral, d42 (recovery)
[11] = dogs, 80 mg/kg/day oral, d42 (recovery)
[12] = 20 mg/kg oral daily, d42 (recovery)
[13] = 60 mg/kg oral daily, d42 (recovery)
[14] = 120 mg/kg oral daily, d42 (recovery)

Compound: CCCCCCCNc1cc(/C=C/C(=O)NO)ccc1OCCN(CC)CC [HZ1006]
- Lung absolute weight [1, 6]: 135.9 g
- Lung relative weight [1, 6]: 13.39
- Lung absolute weight [1, 7]: 109.8 g
- Lung relative weight [1, 7]: 12.34
- Lung absolute weight ([1]; dogs, 5 mg/kg/day oral, d28): 72.7 ± 8.2 g
- Lung relative weight ([1]; dogs, 5 mg/kg/day oral, d28): 6.90 ± 0.90
- Testis absolute weight ([1]; dogs, 5 mg/kg/day oral, d28): 13.550 ± 0.494 g
- Testis relative weight ([1]; dogs, 5 mg/kg/day oral, d28): 1.23 ± 0.03
- Testis absolute weight [1, 8]: 14.050 ± 0.212 g
- Testis relative weight [1, 8]: 1.45 ± 0.04
- Lung absolute weight ([1]; dogs, 20 mg/kg/day oral, d28): 71.4 ± 12.6 g
- Lung relative weight ([1]; dogs, 20 mg/kg/day oral, d28): 6.96 ± 1.02
- Testis absolute weight ([1]; dogs, 20 mg/kg/day oral, d28): 13.953 ± 0.081 g
- Testis relative weight ([1]; dogs, 20 mg/kg/day oral, d28): 1.31 ± 0.26
- Lung absolute weight [1, 9]: 74.0 ± 8.8 g
- Lung relative weight [1, 9]: 7.37 ± 0.67
- Testis absolute weight [1, 9]: 12.179 ± 0.518 g
- Testis relative weight [1, 9]: 1.21 ± 0.01
- Lung absolute weight ([1]; dogs, 40 mg/kg/day oral, d28): 92.4 ± 15.4 g
- Lung relative weight ([1]; dogs, 40 mg/kg/day oral, d28): 9.87 ± 2.14
- Testis absolute weight ([1]; dogs, 40 mg/kg/day oral, d28): 6.631 ± 2.855 g
- Testis relative weight ([1]; dogs, 40 mg/kg/day oral, d28): 0.69 ± 0.24
- Lung absolute weight [1, 10]: 70.4 ± 5.0 g
- Lung relative weight [1, 10]: 7.10 ± 1.13
- Testis absolute weight [1, 10]: 9.400 ± 0.063 g
- Testis relative weight [1, 10]: 0.78 ± 0.21
- Lung absolute weight ([1]; dogs, 80 mg/kg/day oral, d28): 95.8 ± 35.3 g
- Lung relative weight ([1]; dogs, 80 mg/kg/day oral, d28): 9.87 ± 3.27
- Testis absolute weight ([1]; dogs, 80 mg/kg/day oral, d28): 5.660 ± 1.608 g
- Testis relative weight ([1]; dogs, 80 mg/kg/day oral, d28): 0.61 ± 0.23
- Lung absolute weight [1, 11]: 82.9 ± 6.8 g
- Lung relative weight [1, 11]: 8.49 ± 0.95
- Testis absolute weight [1, 11]: 6.017 ± 2.937 g
- Testis relative weight [1, 11]: 0.63 ± 0.31
- Adrenal gland absolute weight ([2]; 20 mg/kg oral daily, d28): 0.081 ± 0.005 g
- Brain relative weight ([2]; 20 mg/kg oral daily, d28): 0.728 ± 0.047 g/100 g
- Adrenal gland absolute weight [2, 12]: 0.072 ± 0.008 g
- Brain relative weight [2, 12]: 0.768 ± 0.020 g/100 g
- Adrenal gland absolute weight ([2]; 60 mg/kg oral daily, d28): 0.068 ± 0.003 g
- Brain relative weight ([2]; 60 mg/kg oral daily, d28): 0.799 ± 0.062 g/100 g
- Adrenal gland absolute weight [2, 13]: 0.071 ± 0.012 g
- Brain relative weight [2, 13]: 0.768 ± 0.068 g/100 g
- Adrenal gland absolute weight ([2]; 120 mg/kg oral daily, d28): 0.066 ± 0.008 g
- Brain relative weight ([2]; 120 mg/kg oral daily, d28): 0.834 ± 0.042 g/100 g
- Adrenal gland absolute weight [2, 14]: 0.069 ± 0.011 g
- Brain relative weight [2, 14]: 0.745 ± 0.089 g/100 g
- Kidney relative weight ([2]; 20 mg/kg oral daily, d28): 0.707 ± 0.024 g/100 g
- Testis absolute weight ([2]; 20 mg/kg oral daily, d28): 2.707 ± 0.090 g
- Kidney relative weight [2, 12]: 0.693 ± 0.033 g/100 g
- Testis absolute weight [2, 12]: 2.798 ± 0.112 g
- Kidney relative weight ([2]; 60 mg/kg oral daily, d28): 0.705 ± 0.039 g/100 g
- Testis absolute weight ([2]; 60 mg/kg oral daily, d28): 2.624 ± 0.170 g
- Kidney relative weight [2, 13]: 0.687 ± 0.020 g/100 g
- Testis absolute weight [2, 13]: 2.787 ± 0.097 g
- Kidney relative weight ([2]; 120 mg/kg oral daily, d28): 0.673 ± 0.023 g/100 g
- Testis absolute weight ([2]; 120 mg/kg oral daily, d28): 2.666 ± 0.115 g
- Kidney relative weight [2, 14]: 0.624 ± 0.053 g/100 g
- Testis absolute weight [2, 14]: 2.723 ± 0.161 g
- body weight reduced compared with the control group ([3]; week 4): 8%
- body weight reduced compared with the control group ([3]; week 5): 15%
- survival ([3]; rats, 20-120 mg/kg oral daily, 28 days + 14-day recovery): All rats survived until the scheduled necropsies
- NOAEL at 28 days [4]: 5 mg/kg
- ECG examination ([5]; 5-80 mg/kg/day oral): no dose-related changes
- urinalysis ([5]; 5-80 mg/kg/day oral): no dose-related changes
- minimum toxic dose ([5]; daily oral administration, 28 days): 20 mg/kg

From publication PMC5201331, “Subchronic Toxicities of HZ1006, a Hydroxamate-Based Histone Deacetylase Inhibitor, in Beagle Dogs and Sprague-Dawley Rats” (International Journal of Environmental Research and Public …, 2016)
